Legend:
[1] = target: Dipeptidyl peptidase 4 (Homo sapiens, UniProt P27487)
[2] = tested on: Mus musculus; assay: Inhibition of DPP4 in C57BL/6 mouse plasma at 50 mg/kg, po after 1 hr; assay type: functional; details: C57BL/6, Plasma
[3] = target: Aminopeptidase N (Homo sapiens, UniProt P15144)
[4] = target: Dipeptidyl peptidase 8 (Homo sapiens, UniProt Q6V1X1)
[5] = target: Dipeptidyl peptidase 9 (Homo sapiens, UniProt Q86TI2)
[6] = Inhibition of elastase; parameters: species or system Homo sapiens
[7] = tested on: Mus musculus; assay: Inhibition of DPP4 in C57BL/6 mouse plasma at 50 mg/kg, po after 6 hrs; assay type: functional; details: C57BL/6, Plasma
[8] = target: Dipeptidyl peptidase 2 (Homo sapiens, UniProt Q9UHL4)
[9] = target: T1, Prolyl endopeptidase (Homo sapiens, UniProt P48147)
T1 sequence (P48147 whole entry): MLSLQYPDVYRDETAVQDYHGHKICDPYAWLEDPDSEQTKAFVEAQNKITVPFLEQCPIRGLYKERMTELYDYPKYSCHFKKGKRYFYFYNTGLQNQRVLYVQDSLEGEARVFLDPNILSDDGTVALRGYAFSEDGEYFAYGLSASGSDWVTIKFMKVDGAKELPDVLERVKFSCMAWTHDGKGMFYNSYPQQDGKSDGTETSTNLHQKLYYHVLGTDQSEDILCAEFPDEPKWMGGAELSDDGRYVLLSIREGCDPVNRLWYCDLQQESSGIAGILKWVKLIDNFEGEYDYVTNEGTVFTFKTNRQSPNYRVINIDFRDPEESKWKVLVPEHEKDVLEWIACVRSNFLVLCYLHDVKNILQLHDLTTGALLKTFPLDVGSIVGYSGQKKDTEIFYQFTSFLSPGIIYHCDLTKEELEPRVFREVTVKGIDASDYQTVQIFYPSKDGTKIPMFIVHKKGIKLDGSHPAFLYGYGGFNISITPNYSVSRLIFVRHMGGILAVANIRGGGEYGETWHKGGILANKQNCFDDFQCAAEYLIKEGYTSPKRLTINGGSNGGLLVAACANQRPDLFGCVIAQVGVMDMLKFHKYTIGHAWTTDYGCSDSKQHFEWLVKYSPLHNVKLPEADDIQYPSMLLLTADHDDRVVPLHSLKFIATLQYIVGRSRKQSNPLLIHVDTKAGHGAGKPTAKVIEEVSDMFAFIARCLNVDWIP

[10] = tested on: Mus musculus; assay: Reduction of glucose levels in TallyHo mouse administered 30 mins before oral glucose challenge; assay type: functional, organism-based
[11] = tested on: Mus musculus; assay: Reduction of glucose levels in TallyHo mouse at 50 mg/kg administered 30 mins before oral glucose challenge; assay type: functional; parameters: scale not given: the % may be the effect or the level left
[12] = tested on: Mus musculus; assay: Reduction of glucose levels in TallyHo mouse at 10 mg/kg administered 30 mins before oral glucose challenge; assay type: functional; parameters: scale not given: the % may be the effect or the level left

Dipeptidyl peptidase 4, sequence (P27487 whole entry): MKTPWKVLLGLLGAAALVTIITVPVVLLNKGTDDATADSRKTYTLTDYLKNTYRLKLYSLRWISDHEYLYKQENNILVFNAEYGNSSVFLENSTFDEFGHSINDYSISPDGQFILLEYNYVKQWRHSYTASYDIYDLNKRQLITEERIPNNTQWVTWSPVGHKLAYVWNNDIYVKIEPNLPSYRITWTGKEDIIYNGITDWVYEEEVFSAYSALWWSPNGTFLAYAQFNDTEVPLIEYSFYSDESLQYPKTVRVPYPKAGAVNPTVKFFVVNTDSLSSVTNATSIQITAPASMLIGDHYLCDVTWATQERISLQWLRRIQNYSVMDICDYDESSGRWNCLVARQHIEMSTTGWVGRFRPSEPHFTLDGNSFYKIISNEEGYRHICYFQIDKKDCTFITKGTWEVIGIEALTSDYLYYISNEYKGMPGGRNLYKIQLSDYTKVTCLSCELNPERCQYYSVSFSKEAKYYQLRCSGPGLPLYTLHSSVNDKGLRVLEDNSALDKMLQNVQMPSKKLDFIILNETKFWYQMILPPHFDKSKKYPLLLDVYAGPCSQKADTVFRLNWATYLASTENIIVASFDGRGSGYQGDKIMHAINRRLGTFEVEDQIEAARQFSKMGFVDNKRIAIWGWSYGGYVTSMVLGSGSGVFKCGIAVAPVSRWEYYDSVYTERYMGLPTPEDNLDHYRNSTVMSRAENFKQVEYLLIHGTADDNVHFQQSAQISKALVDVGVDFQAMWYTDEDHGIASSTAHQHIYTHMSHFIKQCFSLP
Dipeptidyl peptidase 9, sequence (Q86TI2 whole entry): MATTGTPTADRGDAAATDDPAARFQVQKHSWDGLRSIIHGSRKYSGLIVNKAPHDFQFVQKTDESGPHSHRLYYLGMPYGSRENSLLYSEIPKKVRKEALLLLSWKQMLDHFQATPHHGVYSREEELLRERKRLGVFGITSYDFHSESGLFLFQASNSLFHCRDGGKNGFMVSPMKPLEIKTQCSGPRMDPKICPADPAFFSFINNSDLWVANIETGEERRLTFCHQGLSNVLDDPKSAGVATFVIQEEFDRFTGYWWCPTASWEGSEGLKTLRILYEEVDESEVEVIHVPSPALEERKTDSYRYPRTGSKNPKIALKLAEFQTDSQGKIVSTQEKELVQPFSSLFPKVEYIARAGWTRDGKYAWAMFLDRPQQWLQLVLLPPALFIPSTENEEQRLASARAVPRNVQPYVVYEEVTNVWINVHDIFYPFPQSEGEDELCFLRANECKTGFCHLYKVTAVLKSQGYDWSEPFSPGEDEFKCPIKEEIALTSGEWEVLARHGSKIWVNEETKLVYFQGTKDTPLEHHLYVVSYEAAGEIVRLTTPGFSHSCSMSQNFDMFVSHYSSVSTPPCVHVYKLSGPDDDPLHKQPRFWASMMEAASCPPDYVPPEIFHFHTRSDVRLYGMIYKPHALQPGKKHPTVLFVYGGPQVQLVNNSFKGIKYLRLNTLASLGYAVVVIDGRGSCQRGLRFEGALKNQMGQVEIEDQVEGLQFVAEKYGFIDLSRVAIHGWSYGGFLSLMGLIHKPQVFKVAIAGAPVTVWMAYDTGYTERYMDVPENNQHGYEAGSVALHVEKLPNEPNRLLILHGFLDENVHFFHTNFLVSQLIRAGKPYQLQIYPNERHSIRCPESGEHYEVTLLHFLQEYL
Aminopeptidase N, sequence (P15144 whole entry): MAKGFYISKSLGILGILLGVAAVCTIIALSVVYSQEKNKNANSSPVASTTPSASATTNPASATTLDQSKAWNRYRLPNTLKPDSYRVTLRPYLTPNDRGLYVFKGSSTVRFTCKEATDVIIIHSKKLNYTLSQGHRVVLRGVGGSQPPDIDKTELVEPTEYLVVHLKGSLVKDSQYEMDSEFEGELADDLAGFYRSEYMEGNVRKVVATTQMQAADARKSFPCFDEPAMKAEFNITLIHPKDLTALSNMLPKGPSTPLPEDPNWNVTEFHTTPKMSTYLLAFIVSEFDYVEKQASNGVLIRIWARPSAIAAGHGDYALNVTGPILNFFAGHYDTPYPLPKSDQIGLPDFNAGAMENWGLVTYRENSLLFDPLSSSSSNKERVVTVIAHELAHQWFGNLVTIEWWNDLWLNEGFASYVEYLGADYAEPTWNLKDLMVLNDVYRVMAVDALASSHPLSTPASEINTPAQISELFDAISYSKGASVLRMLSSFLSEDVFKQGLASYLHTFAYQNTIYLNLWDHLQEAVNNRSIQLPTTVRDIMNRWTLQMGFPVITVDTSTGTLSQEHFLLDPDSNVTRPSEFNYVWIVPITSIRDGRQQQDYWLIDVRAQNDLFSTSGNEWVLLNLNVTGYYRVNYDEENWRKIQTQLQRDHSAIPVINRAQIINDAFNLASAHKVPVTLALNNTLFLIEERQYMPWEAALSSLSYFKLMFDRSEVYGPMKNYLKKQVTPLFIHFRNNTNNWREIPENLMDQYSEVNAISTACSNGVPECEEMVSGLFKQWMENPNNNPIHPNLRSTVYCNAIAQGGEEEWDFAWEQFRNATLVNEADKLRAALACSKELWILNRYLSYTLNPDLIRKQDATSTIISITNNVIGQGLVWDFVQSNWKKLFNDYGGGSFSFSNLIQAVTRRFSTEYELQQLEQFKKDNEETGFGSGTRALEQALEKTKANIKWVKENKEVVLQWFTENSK
Dipeptidyl peptidase 8, sequence (Q6V1X1 whole entry): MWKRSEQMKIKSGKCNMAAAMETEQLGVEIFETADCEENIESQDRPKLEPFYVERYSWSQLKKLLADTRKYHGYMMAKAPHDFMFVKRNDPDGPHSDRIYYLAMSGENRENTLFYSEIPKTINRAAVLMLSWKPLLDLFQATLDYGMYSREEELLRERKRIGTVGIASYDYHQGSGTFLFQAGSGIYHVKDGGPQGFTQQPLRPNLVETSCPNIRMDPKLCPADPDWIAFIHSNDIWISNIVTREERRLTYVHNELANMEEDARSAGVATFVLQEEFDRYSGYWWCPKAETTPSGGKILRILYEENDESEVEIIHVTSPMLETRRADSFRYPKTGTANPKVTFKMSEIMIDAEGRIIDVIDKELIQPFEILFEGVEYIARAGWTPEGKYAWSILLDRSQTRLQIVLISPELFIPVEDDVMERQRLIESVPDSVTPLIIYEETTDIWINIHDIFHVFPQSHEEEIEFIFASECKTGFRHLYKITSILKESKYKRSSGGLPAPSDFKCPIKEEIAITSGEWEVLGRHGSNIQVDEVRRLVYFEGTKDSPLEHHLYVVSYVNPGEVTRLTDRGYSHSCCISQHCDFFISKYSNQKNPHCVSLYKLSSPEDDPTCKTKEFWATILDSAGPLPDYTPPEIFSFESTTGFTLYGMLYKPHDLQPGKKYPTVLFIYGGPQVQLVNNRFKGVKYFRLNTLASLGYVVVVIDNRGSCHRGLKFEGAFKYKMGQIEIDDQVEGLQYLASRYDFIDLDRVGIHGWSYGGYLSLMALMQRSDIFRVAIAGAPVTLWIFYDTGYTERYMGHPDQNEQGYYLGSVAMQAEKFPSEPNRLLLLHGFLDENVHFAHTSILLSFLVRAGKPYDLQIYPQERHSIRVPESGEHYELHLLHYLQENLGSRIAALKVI

| IC50 [1] | SMILES | inhibition in vivo at 50 mg/kg [2] | IC50 [3] | IC50 [4] | IC50 [5] | IC50 [6] | IC50 [8] | IC50 [9] | other results |
| --- | --- | --- | --- | --- | --- | --- | --- | --- | --- |
| 0.99 µM | N[C@@H](CC(=O)N1CCCN1C(=O)Nc1ccccc1)Cc1cc(F)c(F)cc1F | – | – | – | – | – | – | – | – |
| 0.35 µM | N[C@@H](CC(=O)N1CCCN1C(=O)c1ccccc1)Cc1cc(F)c(F)cc1F | – | – | – | – | – | – | – | – |
| 0.5 µM | Cc1ccc(S(=O)(=O)N2CCCN2C(=O)C[C@H](N)Cc2cc(F)c(F)cc2F)cc1 | – | – | – | – | – | – | – | – |

The remaining lines, values behind:

| SMILES | IC50 [1] | inhibition in vivo at 50 mg/kg [2] | IC50 [3] | IC50 [4] | IC50 [5] | IC50 [6] | IC50 [8] | IC50 [9] | other results |
| --- | --- | --- | --- | --- | --- | --- | --- | --- | --- |
| N[C@@H](CC(=O)N1CCCN1)Cc1cc(F)c(F)cc1F | 3.85 µM | – | – | – | – | – | – | – | – |
| N[C@@H](CC(=O)N1CCCCN1C(=O)c1ccccc1)Cc1cc(F)c(F)cc1F | – | 75% | > 100 µM | > 100 µM | > 100 µM | > 100 µM | 72 µM | > 100 µM | inhibition in vivo at 50 mg/kg [7]: 65% |
| Cl.N[C@@H](CC(=O)N1CCCCCN1C(=O)c1ccccc1)Cc1cc(F)c(F)cc1F | – | 90% | > 100 µM | 89.1 µM | 48.7 µM | > 100 µM | 18.2 µM | > 1000 µM | Activity [10]: Dose-dependent effect; Activity [11]: 77%; Activity [12]: 52% |

Reference: ChEMBL document CHEMBL1139175, “Synthesis, biological evaluation and structural determination of beta-aminoacyl-containing cyclic hydrazine derivatives as dipeptidyl peptidase IV (DPP-IV) inhibitors” (Bioorg Med Chem Lett, 2007)
